Test results as given in ChEMBL document CHEMBL1201862, “PubChem BioAssay data set” (2004).
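Protocol summary: plate cells (96-well), add compound at 5 concentrations, incubate 48 h, interpolate endpoints linearly. GI50 marks 50% less growth.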 Active and inactive are the calls of the source. Cut-off read from the data, not from the text of the source: active = GI50 up to about 1.1 µM and inactive = higher.

How the values were obtained:
Assay in all cases: growth of human tumour cells (NCI), 48 h
RPMI-8226 = test system: RPMI-8226
MDA-N = test system: MDA-N
HOP-62 = test system: HOP-62
DU-145 = test system: DU-145
COLO 205 = test system: COLO 205
OVCAR-8 = test system: OVCAR-8
NCI-H522 = test system: NCI-H522
786-0 = test system: 786-0
OVCAR-4 = test system: OVCAR-4
NCI-H23 = test system: NCI-H23
T47D = test system: T47D
LOX IMVI = test system: LOX IMVI
SK-MEL-28 = test system: SK-MEL-28
MDA-MB-435 = test system: MDA-MB-435
SR = test system: SR
MCF7 = test system: MCF7
A549 = test system: A549
Malme-3M = test system: Malme-3M
UO-31 = test system: UO-31
U-251 = test system: U-251

Structure (SMILES)	GI50 (RPMI-8226)	GI50 (MDA-N)	GI50 (HOP-62)	GI50 (DU-145)	GI50 (COLO 205)	GI50 (OVCAR-8)	GI50 (NCI-H522)	GI50 (786-0)	GI50 (OVCAR-4)	GI50 (NCI-H23)	GI50 (T47D)	GI50 (LOX IMVI)	GI50 (SK-MEL-28)	GI50 (MDA-MB-435)	GI50 (SR)	GI50 (MCF7)	GI50 (A549)	GI50 (Malme-3M)	GI50 (UO-31)	GI50 (U-251)
COc1ccccc1/C=N/Nc1nnc2c3ccccc3c3ncccc3c2n1	69.2 µM (inactive)	> 100 µM (inactive)	17.1 µM (inactive)	> 100 µM (inactive)	> 100 µM (inactive)	30 µM (inactive)	70.6 µM (inactive)	28.1 µM (inactive)	17.8 µM (inactive)	> 100 µM (inactive)	39.7 µM (inactive)	64.1 µM (inactive)	> 100 µM (inactive)	> 100 µM (inactive)	39.9 µM (inactive)	> 100 µM (inactive)	> 100 µM (inactive)	49.1 µM (inactive)	> 100 µM (inactive)	37.3 µM (inactive)
Cc1ccc(N(C)S(=O)(=O)c2ccccc2[N+](=O)[O-])cc1	33.9 µM (inactive)	34.5 µM (inactive)	49.1 µM (inactive)	98.4 µM (inactive)	57.3 µM (inactive)	48.6 µM (inactive)	24.6 µM (inactive)	> 100 µM (inactive)	41.7 µM (inactive)	40.4 µM (inactive)	77.4 µM (inactive)	32.4 µM (inactive)	44.9 µM (inactive)	29.2 µM (inactive)	47.4 µM (inactive)	49 µM (inactive)	39.6 µM (inactive)	33.2 µM (inactive)	40.5 µM (inactive)	49.2 µM (inactive)
O=C(O)c1ccccc1C(=O)NCC1S(=O)(=O)OCCOS1(=O)=O	> 100 µM (inactive)	> 100 µM (inactive)	> 100 µM (inactive)	> 100 µM (inactive)	> 100 µM (inactive)	> 100 µM (inactive)	> 100 µM (inactive)	> 100 µM (inactive)	> 100 µM (inactive)	> 100 µM (inactive)	> 100 µM (inactive)	> 100 µM (inactive)	> 100 µM (inactive)	> 100 µM (inactive)	> 100 µM (inactive)	> 100 µM (inactive)	> 100 µM (inactive)	> 100 µM (inactive)	> 100 µM (inactive)	> 100 µM (inactive)
Cc1nc(-c2ccccc2)cn2c1nc1ccccc12	41.1 µM (inactive)	21.8 µM (inactive)	20.9 µM (inactive)	31.8 µM (inactive)	37.9 µM (inactive)	18.8 µM (inactive)	24.9 µM (inactive)	21 µM (inactive)	20.9 µM (inactive)	25.9 µM (inactive)	2.05 µM (inactive)	20.8 µM (inactive)	30.5 µM (inactive)	19.2 µM (inactive)	27.2 µM (inactive)	2.8 µM (inactive)	19.4 µM (inactive)	23.9 µM (inactive)	13.6 µM (inactive)	18.6 µM (inactive)
CCOc1ccnc2c(OC)c(C)c3nc4ccccc4nc3c12	> 100 µM (inactive)	> 100 µM (inactive)	> 100 µM (inactive)	41 µM (inactive)	> 100 µM (inactive)	57.4 µM (inactive)	> 100 µM (inactive)	> 100 µM (inactive)	> 100 µM (inactive)	> 100 µM (inactive)	3.31 µM (inactive)	> 100 µM (inactive)	> 100 µM (inactive)	> 100 µM (inactive)	18.6 µM (inactive)	26 µM (inactive)	> 100 µM (inactive)	> 100 µM (inactive)	> 100 µM (inactive)	> 100 µM (inactive)
COC(=O)C12Oc3ccc(-c4ccc5c(c4O)C(O)=C4C(=O)CC(C)C(O)C4(C(=O)OC)O5)c(O)c3C(O)=C1C(=O)CC(C)C2O (stereo not given)	0.0494 µM (active)	0.125 µM (active)	0.0644 µM (active)	0.547 µM (active)	0.0656 µM (active)	0.094 µM (active)	0.0304 µM (active)	0.314 µM (active)	0.467 µM (active)	0.0615 µM (active)	0.25 µM (active)	0.151 µM (active)	0.0397 µM (active)	0.0634 µM (active)	0.0234 µM (active)	0.151 µM (active)	0.0702 µM (active)	0.0217 µM (active)	0.156 µM (active)	0.0525 µM (active)
O=C(Nc1ccccc1)O/N=C(/CBr)c1ccccc1	16.3 µM (inactive)	6.87 µM (inactive)	24.3 µM (inactive)	19.3 µM (inactive)	15.7 µM (inactive)	14.6 µM (inactive)	8.85 µM (inactive)	7.71 µM (inactive)	15.1 µM (inactive)	7.35 µM (inactive)	11.5 µM (inactive)	3.15 µM (inactive)	19.5 µM (inactive)	4.84 µM (inactive)	3.94 µM (inactive)	16.7 µM (inactive)	34 µM (inactive)	13 µM (inactive)	16.1 µM (inactive)	14.5 µM (inactive)
